Assay results reported in patent publication US8952024B2, “Herbicidal pyrimidone derivatives” (E I du Pont de Nemours and Company, priority 2009, dated 2015).

What was measured:
Format in all cases: in vivo
[1] = test system: chickweed (Stellaria media); test: Test B postemergence plant response
How it was run: (§1)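 Visual ratings from 0 (no effect) to 100 (complete control), made against controls 13–15 days after treatment, kept in a greenhouse. Compounds were applied postemergence to potted plants at the 1- to 4-leaf stage (2–18 cm).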

[2] = test system: canarygrass (Phalaris minor); test: Test B postemergence plant response
How it was run: as §1

[3] = test system: windgrass (Apera spica-venti); test: Test B postemergence plant response
How it was run: as §1

[4] = test system: wheat (Triticum aestivum); test: Test B pre-/postemergence plant response
From the text: (§2) Seeds of plant species selected from blackgrass (Alopecurus myosuroides), downy bromegrass (Bromus tectorum), green foxtail (Setaria viridis), Italian ryegrass (Lolium multiflorum), wheat (Triticum aestivum), wild oat (Avena fatua), deadnettle (henbit deadnettle, Lamium amplexicaule), galium (catchweed bedstraw, Galium aparine), bermudagrass (Cynodon dactylon), Surinam grass (Brachiaria decumbens), cocklebur (Xanthium strumarium), corn (Zea mays), large crabgrass (Digitaria sanguinalis), woolly cupgrass (Eriochloa villosa), giant foxtail (Setaria faberii), goosegrass (Eleusine indica), johnsongrass (Sorghum halepense), kochia (Kochia scoparia), lambsquarters (Chenopodium album), morningglory (Ipomoea coccinea), nightshade (eastern black nightshade, Solanum ptycanthum), yellow nutsedge (Cyperus esculentus), pigweed (Amaranthus retroflexus), ragweed (common ragweed, Ambrosia elatior), Russian thistle (Salsola kali), soybean (Glycine max), sunflower (common oilseed sunflower, Helianthus annuus) and velvetleaf (Abutilon theophrasti) were planted into a blend of loam soil and sand and treated preemergence with test compounds formulated in a non-phytotoxic solvent mixture which included a surfactant.
(§3) At the same time, plants selected from these crop and weed species and also winter barley (Hordeum vulgare), canarygrass (Phalaris minor), chickweed (Stellaria media) and windgrass (Apera spica-venti) were planted in pots containing Redi-Earth® planting medium (Scotts Company, 14111 Scottslawn Road, Marysville, Ohio 43041) comprising spaghnum peat moss, vermiculite, wetting agent and starter nutrients and treated with postemergence applications of some of the test chemicals formulated in the same manner. Plants ranged in height from 2 to 18 cm (1- to 4-leaf stage) for postemergence treatments.
(§4) Treated plants and controls were maintained in a greenhouse for 13 to 15 days, after which time all treated plants were visually evaluated and compared to controls. Plant response ratings, summarized in Table B, are based on a scale of 0 to 100 where 0 is no effect and 100 is complete control. A dash (-) response means no test result.

[5] = test system: cocklebur (Xanthium strumarium); test: Test B pre-/postemergence plant response
From the text: as §2, §3, §4

wild oat (Avena fatua) = test: Test B pre-/postemergence plant response
From the text: as §2, §3, §4

soybean (Glycine max) = test: Test B pre-/postemergence plant response
From the text: as §2, §3, §4

[6] = test system: Surinam grass (Brachiaria decumbens); test: Test B pre-/postemergence plant response
From the text: as §2, §3, §4

[7] = test system: velvetleaf (Abutilon theophrasti); test: Test B pre-/postemergence plant response
From the text: as §2, §3, §4

[8] = test system: lambsquarters (Chenopodium album); test: Test B pre-/postemergence plant response
From the text: as §2, §3, §4

[9] = test system: pigweed (Amaranthus retroflexus); test: Test B pre-/postemergence plant response
From the text: as §2, §3, §4

[10] = test system: blackgrass (Alopecurus myosuroides); test: Test B pre-/postemergence plant response
From the text: as §2, §3, §4

kochia (Kochia scoparia) = test: Test B pre-/postemergence plant response
From the text: as §2, §3, §4

[11] = 31 g ai/ha, postemergence, scale 0 to 100, 0 is no effect, 100 is complete control
[12] = Postemergence, 62 g ai/ha, scale 0 (no effect) to 100 (complete control), 13 to 15 days
[13] = Postemergence, 125 g ai/ha, visual rating after 13 to 15 days, scale 0 (no effect) to 100 (complete control)
[14] = Postemergence, 250 g ai/ha, scale 0 to 100 (0 no effect, 100 complete control)
[15] = Preemergence, 31 g ai/ha, scale 0 to 100 (0 no effect, 100 complete control)
[16] = Preemergence, 62 g ai/ha, scale 0 to 100 (0 no effect, 100 complete control)
[17] = Preemergence, 125 g ai/ha, scale 0 to 100, 0 no effect, 100 complete control
[18] = 250 g ai/ha, Preemergence, 0 to 100 scale

## Cn1c(-c2ccccc2)ncc(C(=O)C2=C(O)CCCC2=O)c1=O [Compound 55]
[1]; [11]
  Plant response rating, Chickweed: 65
[1]; [12]
  Plant response rating, Chickweed: 75
[1]; [13]
  Plant response rating, Chickweed: 80
[1]; [14]
  Plant response rating, Chickweed: 90
[2]; [11]
  Plant response rating, Canarygrass: 0
[2]; [12]
  Plant response rating, Canarygrass: 0
[2]; [13]
  Plant response rating, Canarygrass: 0
[2]; [14]
  Plant response rating, Canarygrass: 0
[3]; [11]
  Plant response rating, Windgrass: 0
[3]; [12]
  Plant response rating, Windgrass: 0
[3]; [13]
  Plant response rating, Windgrass: 0
[3]; [14]
  Plant response rating, Windgrass: 5
[4]; [11]
  Plant response rating, Wheat: 0
[4]; [12]
  Plant response rating, Wheat: 0
[4]; [13]
  Plant response rating, Wheat: 5
[4]; [14]
  Plant response rating, Wheat: 10
[4]; [15]
  Plant response rating, Wheat: 0
[4]; [16]
  Plant response rating, Wheat: 0
[4]; [17]
  Plant response rating, Wheat: 0
[5]; [11]
  Plant response rating, Cocklebur: 45
[5]; [18]
  Plant response rating, Cocklebur: 15
[5]; [12]
  Plant response rating, Cocklebur: 60
[5]; [13]
  Plant response rating, Cocklebur: 65
[5]; [14]
  Plant response rating, Cocklebur: 75
[5]; [15]
  Plant response rating, Cocklebur: 0
[5]; [16]
  Plant response rating, Cocklebur: 10
[5]; [17]
  Plant response rating, Cocklebur: 10
Wild oat (Avena fatua); [11]
  Plant response rating, Oat, Wild: 0
Wild oat (Avena fatua); [12]
  Plant response rating, Oat, Wild: 0
Wild oat (Avena fatua); [13]
  Plant response rating, Oat, Wild: 0
Wild oat (Avena fatua); [14]
  Plant response rating, Oat, Wild: 5
Wild oat (Avena fatua); [15]
  Plant response rating, Oat, Wild: 0
Wild oat (Avena fatua); [16]
  Plant response rating, Oat, Wild: 0
Wild oat (Avena fatua); [17]
  Plant response rating, Oat, Wild: 0
Soybean (Glycine max); [11]
  Plant response rating, Soybean: 25
Soybean (Glycine max); [12]
  Plant response rating, Soybean: 60
Soybean (Glycine max); [13]
  Plant response rating, Soybean: 60
Soybean (Glycine max); [14]
  Plant response rating, Soybean: 75
Soybean (Glycine max); [15]
  Plant response rating, Soybean: 0
Soybean (Glycine max); [16]
  Plant response rating, Soybean: 0
Soybean (Glycine max); [17]
  Plant response rating, Soybean: 15
[6]; [11]
  Plant response rating, Surinam Grass: 10
[6]; [12]
  Plant response rating, Surinam Grass: 15
[6]; [13]
  Plant response rating, Surinam Grass: 45
[6]; [14]
  Plant response rating, Surinam Grass: 60
[6]; [15]
  Plant response rating, Surinam Grass: 0
[6]; [16]
  Plant response rating, Surinam Grass: 0
[6]; [17]
  Plant response rating, Surinam Grass: 0
[7]; [11]
  Plant response rating, Velvetleaf: 90
[7]; [12]
  Plant response rating, Velvetleaf: 98
[7]; [13]
  Plant response rating, Velvetleaf: 98
[7]; [14]
  Plant response rating, Velvetleaf: 100
[7]; [15]
  Plant response rating, Velvetleaf: 75
[7]; [16]
  Plant response rating, Velvetleaf: 98
[7]; [17]
  Plant response rating, Velvetleaf: 100
[8]; [11]
  Plant response rating, Lambsquarters: 80
[8]; [18]
  Plant response rating, Lambsquarters: 100
[8]; [12]
  Plant response rating, Lambsquarters: 80
[8]; [13]
  Plant response rating, Lambsquarters: 95
[8]; [14]
  Plant response rating, Lambsquarters: 98
[8]; [15]
  Plant response rating, Lambsquarters: 95
[8]; [16]
  Plant response rating, Lambsquarters: 98
[8]; [17]
  Plant response rating, Lambsquarters: 98
[9]; [11]
  Plant response rating, Pigweed: 80
[9]; [12]
  Plant response rating, Pigweed: 85
[9]; [13]
  Plant response rating, Pigweed: 90
[9]; [14]
  Plant response rating, Pigweed: 95
[9]; [15]
  Plant response rating, Pigweed: 45
[9]; [16]
  Plant response rating, Pigweed: 95
[9]; [17]
  Plant response rating, Pigweed: 98
[10]; [11]
  Plant response rating, Blackgrass: 0
[10]; [18]
  Plant response rating, Blackgrass: 30
[10]; [12]
  Plant response rating, Blackgrass: 0
[10]; [13]
  Plant response rating, Blackgrass: 5
[10]; [14]
  Plant response rating, Blackgrass: 10
[10]; [15]
  Plant response rating, Blackgrass: 0
[10]; [16]
  Plant response rating, Blackgrass: 0
[10]; [17]
  Plant response rating, Blackgrass: 0
Kochia (Kochia scoparia); [11]
  Plant response rating, Kochia: 20
Kochia (Kochia scoparia); [12]
  Plant response rating, Kochia: 65
Kochia (Kochia scoparia); [13]
  Plant response rating, Kochia: 75
Kochia (Kochia scoparia); [14]
  Plant response rating, Kochia: 85
